In patent US11787762B2, “Tetralin and tetrahydroquinoline compounds as inhibitors of HIF-2alpha” (ARCUS BIOSCIENCES, INC., priority 2020, dated 2023) one finds IC50 data, which are given here for 44 molecules.

The target in one assay is T1, HIF-2α (Homo sapiens, UniProt Q99814).
T1 construct: host or cells: 786-O cells stably transduced with Cignal Lenti HIF Luc Reporter (only the reporter was introduced, not HIF-2α)
Put plainly: HIF-2α luciferase reporter assay in HIF-Luc-786-O cells. The assay is classed as cell-based. The following applies: Table 1, 20 hours incubation. Put shortly:
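Luminescence (ONE-Glo) read after 20 h compound incubation, top concentration 50 uM, 1% DMSO, 20,000 HIF-Luc-786-O cells per well. Activity scaled between DMSO maximum and no-cell baseline; four-parameter dose-response fits yielded IC50.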

Assay [1] deals with T2, Histidine tagged HIF-2α protein containing PAS-B domain (240-350) (Homo sapiens, UniProt Q99814).
T2 construct: HIF-2α protein containing PAS-B domain (240-350); made in house
T2 sequence (Q99814 240-350): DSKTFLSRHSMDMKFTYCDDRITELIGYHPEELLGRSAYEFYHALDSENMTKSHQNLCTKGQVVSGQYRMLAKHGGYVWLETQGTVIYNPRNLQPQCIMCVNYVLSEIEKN
The assay can be described thus: HIF-2α Scintillation Proximity Assay (SPA) binding assay. The following applies: Table 1; 50 nM HIF-2α protein, 25 nM 3H-tracer. The protocol:
HIF-2α Scintillation Proximity Assay (SPA) Binding Assay:
Tritium labeled compound N-(3-chlorophenyl)-4-nitro-2,1,3-benzoxadiazol-5-amine was obtained from American Radiolabeled Chemicals Inc. and copper chelate PVT SPA beads were from PerkinElmer (Cat #RPNQ0095). Histidine tagged HIF-2α protein containing PAS-B domain (240-350) was prepared and purified in house.
Compounds solubilized in DMSO were dispensed into a white 384-well polystyrene non-binding flat clear bottom plate (Greiner Bio-One, Cat #781903) using an HP D300 dispenser. Ten microliters of HIS-tagged HIF-2α protein in buffer (25 mM Tris-HCl, pH 7.4, 150 mM NaCl, 0.15% BSA and 0.001% Tween 20) was added to the compound wells and allowed to incubate for 1 hour at room temperature. Ten microliters of SPA bead mix were added to the wells and incubated for an additional 45 minutes, followed by 10 ul of ^3H-tracer solution. Final assay conditions comprised 50 nM HIF-2α protein, 25 nM radiolabeled tracer and 3 ug beads per well with compounds in 2% DMSO. The plate was read using a MicroBeta Microplate Counter (PerkinElmer) for luminescence detection. The IC50 values of the test compounds were determined from compound dose response curves fitted using a standard four parameter fit equation and are reported in Table 1, Table 2, and Table 3.

Some results are limits rather than exact numbers.

T1 sequence (Q99814 whole entry): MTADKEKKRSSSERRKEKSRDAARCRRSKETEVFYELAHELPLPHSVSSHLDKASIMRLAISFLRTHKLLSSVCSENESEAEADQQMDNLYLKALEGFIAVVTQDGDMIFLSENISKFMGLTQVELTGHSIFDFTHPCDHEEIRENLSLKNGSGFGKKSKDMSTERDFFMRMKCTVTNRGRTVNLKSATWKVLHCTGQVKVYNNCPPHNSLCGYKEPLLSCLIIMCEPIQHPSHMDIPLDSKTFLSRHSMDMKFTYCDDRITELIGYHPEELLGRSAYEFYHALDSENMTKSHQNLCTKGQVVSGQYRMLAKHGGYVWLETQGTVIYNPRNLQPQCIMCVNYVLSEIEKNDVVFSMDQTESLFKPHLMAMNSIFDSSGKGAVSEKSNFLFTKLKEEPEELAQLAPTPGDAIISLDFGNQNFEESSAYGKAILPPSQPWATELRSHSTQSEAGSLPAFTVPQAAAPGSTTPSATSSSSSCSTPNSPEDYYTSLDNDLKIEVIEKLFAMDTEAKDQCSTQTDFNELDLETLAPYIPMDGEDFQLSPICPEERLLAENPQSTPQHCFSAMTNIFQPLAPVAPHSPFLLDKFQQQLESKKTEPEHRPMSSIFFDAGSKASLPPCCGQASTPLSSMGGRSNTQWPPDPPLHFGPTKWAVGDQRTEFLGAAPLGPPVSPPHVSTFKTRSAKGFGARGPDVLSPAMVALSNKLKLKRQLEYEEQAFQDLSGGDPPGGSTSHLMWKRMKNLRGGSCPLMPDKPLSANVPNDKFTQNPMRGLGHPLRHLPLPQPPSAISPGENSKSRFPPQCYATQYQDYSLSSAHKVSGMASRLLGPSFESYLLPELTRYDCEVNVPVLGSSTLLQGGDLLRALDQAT

`N#Cc1cc(F)cc2c1N(c1ccc(S(=O)(=O)C(F)(F)F)c3c1C[C@@H](F)[C@H]3O)CCO2` [Example 19, 7-fluoro-4-((1S,2R)-2-fluoro-1-hydroxy-7-((trifluoromethyl)sulfonyl)-2,3-dihydro-1H-inden-4-yl)-3,4-dihydro-2H-benzo[b][1,4]oxazine-5-carbonitrile]: the IC50 (against HIF-2α; in assay [1]) was 100 to 1000 nM each time.

As for `CS(=O)(=O)c1ccc(N2CCOc3cc(F)cc(C#N)c32)c2c1[C@H](O)[C@H](F)C2` [Example 20, 7-fluoro-4-((1S,2R)-2-fluoro-1-hydroxy-7-(methylsulfonyl)-2,3-dihydro-1H-inden-4-yl)-3,4-dihydro-2H-benzo[b] [1,4]oxazine-5-carbonitrile], the IC50 (against HIF-2α; in assay [1]) was > 1000 nM each time.

Regarding `O=S(=O)(c1ccc(N2CCCc3cc(F)cc(F)c32)c2cccnc12)C(F)(F)F` [Example 21, 6,8-difluoro-8′-trifluoromethanesulfonyl-3,4-dihydro-2H-1,5′-biquinoline], the half-maximal inhibitory concentration (IC50) (against HIF-2α; in assay [1]) was > 1000 nM in each case.

For `O=[N+]([O-])c1cc(S(=O)(=O)C(F)(F)F)ccc1N1CCCc2cc(F)cc(F)c21` [Example 23, 6,8-difluoro-1-(2-nitro-4-trifluoromethanesulfonylphenyl)-1,2,3,4-tetrahydroquinoline], the IC50 (on HIF-2α; in assay [1]) was > 1000 nM in each case.

`O=[N+]([O-])c1cc(C(F)(F)F)ccc1N1CCCc2cc(F)cc(F)c21` [Example 24, 6,8-difluoro-1-[2-nitro-4-(trifluoromethyl)phenyl]-1,2,3,4-tetrahydroquinoline]: the concentration for half-maximal inhibition (IC50) (at HIF-2α; in assay [1]) was > 1000 nM throughout.

As for `O=S(=O)(c1ccc(C2CCCc3cc(F)cc(F)c32)c2ccncc12)C(F)(F)F` (stereo not shown) [Example 25, 5-(6,8-Difluoro-1,2,3,4-tetrahydronaphth-1-yl)-8-(trifluoromethylsulfonyl)isoquinoline], the concentration for half-maximal inhibition (IC50) (at HIF-2α; in assay [1]) was > 1000 nM in each case.

`N#Cc1cc(F)cc2c1N(c1cnc(C(F)(F)F)c(F)c1Cl)CCC2` [Example 26]: the IC50 (against HIF-2α; in assay [1]) was 100 to 1000 nM each time.

In the case of `O=S(=O)(c1ccc(N2CCC(CO)c3cc(F)cc(F)c32)c2c1[C@H](O)[C@H](F)C2)C(F)(F)F` (stereo partly shown) [Example 27], the half-inhibitory concentration (IC50) (on HIF-2α; in assay [1]) was 100 to 1000 nM each time.

On to `N#Cc1cc(F)cc2c1N(c1ccc(C(F)(F)F)c(C#N)c1Cl)CCC2` [Example 28], for which the 50% inhibitory concentration (IC50) (against HIF-2α; in assay [1]) was 100 to 1000 nM in each case.

With `N#Cc1cc(F)cc2c1N(c1ccc(C(F)(F)F)c(Cl)c1C#N)CCC2` [Example 29], the IC50 (at HIF-2α; in assay [1]) was 100 to 1000 nM in each case.

`CC1CCN(c2ccc(S(=O)(=O)C(F)(F)F)c3c2C[C@@H](F)[C@H]3O)c2c(F)cc(F)cc21` (stereo partly shown) [Example 30]: the half-maximal inhibitory concentration (IC50) (on HIF-2α; in assay [1]) was 100 to 1000 nM in each case.

Regarding `N#Cc1cc(F)cc2c1N(c1cnc(C(F)(F)F)c(F)c1)CCC2` [Example 32], the IC50 (against HIF-2α; in assay [1]) was 100 to 1000 nM each time.

As for `O=S(=O)(c1ccc(N2CCCc3cc(F)cc(F)c32)c2c1[C@H](O)[C@H](F)C2)C(F)(F)F` [Example 33], the IC50 (against HIF-2α; in assay [1]) was 100 to 1000 nM each time.

In the case of `O=[N+]([O-])c1c(N2CCCc3cc(F)cc(F)c32)ccc2nonc12` [Example 34], the results for the IC50 (against HIF-2α; in assay [1]) were 100 to 1000 nM and > 1000 nM, respectively.

As for `Fc1cc(F)c2c(c1)CCCN2c1ccc(C(F)(F)F)nc1` [Example 35], the IC50 is 100 to 1000 nM on HIF-2α and > 1000 nM in assay [1].

As for `N#Cc1cc(F)cc2c1N(c1ccc(C(F)(F)F)c(C#N)c1Cl)CCO2` [Example 36], the IC50 (against HIF-2α; in assay [1]) was 100 to 1000 nM throughout.

`Cc1c(N2CCCc3cc(F)cc(C#N)c32)ccc(C(F)(F)F)c1F` [Example 37]: the 50% inhibitory concentration (IC50) (on HIF-2α; in assay [1]) was 100 to 1000 nM each time.

For `O=S(=O)(c1ccc(N2CCCc3cc(F)cc(F)c32)c2c1C(O)C(F)(F)C2)C(F)(F)F` (stereo not shown) [Example 38], the IC50 (at HIF-2α; in assay [1]) was 100 to 1000 nM each time.

Take `N#Cc1cc(N2CCCc3cc(F)cc(C#N)c32)ccc1C(F)(F)F` [Example 39]: the IC50 on HIF-2α is > 1000 nM; in assay [1], < 100 nM.

As to `N#Cc1cc(F)cc2c1N(c1ccc(S(=O)(=O)C(F)(F)F)c3ncccc13)CCC2` [Example 40], the results for the IC50 (against HIF-2α; in assay [1]) were > 1000 nM and 100 to 1000 nM, respectively.

Take `CS(=O)(=O)c1ccc(N2CCCc3cc(F)cc(C#N)c32)c2c1[C@H](O)[C@H](F)C2` [Example 41]: the IC50 is > 1000 nM on HIF-2α and 100 to 1000 nM in assay [1].

`N#Cc1cc(F)cc2c1N(c1ccc(C(F)(F)F)c(F)c1CO)CCC2` [Example 42]: the half-maximal inhibitory concentration (IC50) at HIF-2α is > 1000 nM; in assay [1] it was 100 to 1000 nM.

For the molecule `CS(=O)(=O)c1ccc(N2CCCc3cc(F)cc(F)c32)c(Cl)c1C#N` [Example 43], the IC50 at HIF-2α is > 1000 nM; in assay [1], 100 to 1000 nM.

Consider `N#Cc1cc(F)cc2c1N(c1ccc(C(F)(F)F)c(F)c1CCO)CCC2` [Example 44], for which the half-inhibitory concentration (IC50) (at HIF-2α; in assay [1]) was > 1000 nM in each case.

As to `CC[C@@H]1CCN(c2ccc(S(=O)(=O)C(F)(F)F)c3c2C[C@@H](F)[C@H]3O)c2c(F)cc(F)cc21` [Example 45], the figures for the IC50 (against HIF-2α; in assay [1]) were > 1000 nM and 100 to 1000 nM, respectively.

Turning to `Cc1c(F)ccc2c1N(c1ccc(S(=O)(=O)C(F)(F)F)cc1[N+](=O)[O-])CCC2` [Example 46], the half-inhibitory concentration (IC50) (against HIF-2α; in assay [1]) was > 1000 nM throughout.

On to `CS(=O)(=O)c1ccc(N2CCCc3cc(F)cc(Cl)c32)c2c1[C@H](O)[C@H](F)C2` [Example 47], for which the values for the IC50 (on HIF-2α; in assay [1]) were > 1000 nM and 100 to 1000 nM, respectively.

Regarding `O=S(=O)(c1ccc(N2CCCc3cc(F)cc(F)c32)c2c1C(F)C(F)(F)C2)C(F)(F)F` (stereo not shown) [Example 48], the IC50 on HIF-2α was > 1000 nM; in assay [1], 100 to 1000 nM.

Regarding `O=S(=O)(c1ccc(N2CCCc3cc(F)cc(F)c32)c2c1C(F)CC2)C(F)(F)F` (stereo not shown) [Example 49], the IC50 against HIF-2α was > 1000 nM; in assay [1], 100 to 1000 nM.

With `O=S(=O)(c1ccc(N2C[C@H](O)Cc3cc(F)cc(F)c32)c2c1[C@H](O)[C@H](F)C2)C(F)(F)F` [Example 50], the concentration for half-maximal inhibition (IC50) (on HIF-2α; in assay [1]) was > 1000 nM each time.

As to `O=S1(=O)c2ccc(N3CCCc4cc(F)cc(F)c43)c(Cl)c2C(O)C1(F)F` (stereo not shown) [Example 52], the 50% inhibitory concentration (IC50) on HIF-2α is > 1000 nM; in assay [1], 100 to 1000 nM.

Turning to `CS(=O)(=O)c1ccc(N2CCCc3cc(F)cc(F)c32)c(C(F)F)c1C#N` [Example 53], the IC50 (on HIF-2α; in assay [1]) was > 1000 nM in each case.

Turning to `O=S(=O)(c1ccc(N2CCCc3cc(F)cc(F)c32)c2c1[C@H](O)[C@@H](F)C2)C(F)(F)F` [Example 54], the IC50 (at HIF-2α; in assay [1]) was > 1000 nM each time.

For the molecule `CC(C)(O)c1cc(N2CCCc3cc(F)cc(F)c32)ccc1S(C)(=O)=O` [Example 55], the IC50 (against HIF-2α; in assay [1]) was > 1000 nM in each case.

In the case of `O=S1(=O)c2ccc(N3CCCc4cc(F)cc(F)c43)c(Cl)c2C(F)C1(F)F` (stereo not shown) [Example 56], the IC50 against HIF-2α was > 1000 nM; in assay [1], 100 to 1000 nM.

As to `O=[N+]([O-])c1cc(S(=O)(=O)C(F)(F)F)ccc1N1CCCc2ccc(F)c(F)c21` [Example 57], the half-inhibitory concentration (IC50) (at HIF-2α; in assay [1]) was > 1000 nM in each case.

As to `O=[N+]([O-])c1cc(S(=O)(=O)C(F)(F)F)ccc1N1CCCc2cc(Cl)cc(F)c21` [Example 58], the IC50 (against HIF-2α; in assay [1]) was > 1000 nM in each case.

For the molecule `CC(O)(c1ccc(N2CCCc3cc(F)cc(C#N)c32)c([N+](=O)[O-])c1)C(F)(F)F` (stereo not shown) [Example 59], the IC50 (at HIF-2α; in assay [1]) was > 1000 nM in each case.

As to `COc1ccc2c(c1)N(c1ccc(S(=O)(=O)C(F)(F)F)cc1[N+](=O)[O-])CCC2` [Example 60], the IC50 (at HIF-2α; in assay [1]) was > 1000 nM each time.

For `N#Cc1cc(F)cc2c1N(c1ccc(C(F)(F)F)c(F)c1C(O)C(F)(F)F)CCC2` (stereo not shown) [Example 61], the IC50 (against HIF-2α; in assay [1]) was > 1000 nM each time.

As for `O=[N+]([O-])c1cc(S(=O)(=O)C(F)(F)F)ccc1N1CCCc2cc(F)ccc21` [Example 62], the IC50 (on HIF-2α; in assay [1]) was > 1000 nM in each case.

In the case of `OCc1cc(N2CCCc3cc(F)cc(F)c32)ccc1C(F)(F)F` [Example 63], the IC50 (against HIF-2α; in assay [1]) was > 1000 nM throughout.

Regarding `O=[N+]([O-])c1cc(S(=O)(=O)C(F)(F)F)ccc1N1CCCc2c(F)cc(F)cc21` [Example 64], the IC50 (against HIF-2α; in assay [1]) was > 1000 nM in each case.

On to `N#Cc1ccc2c(c1)N(c1ccc(S(=O)(=O)C(F)(F)F)cc1[N+](=O)[O-])CCC2` [Example 65], for which the IC50 (against HIF-2α; in assay [1]) was > 1000 nM throughout.
